Test system: GM-CSF-producing CD8-positive T-cells
Assay: GM-CSF-producing CD8-positive T-cells in PBMCs of normal subjects after single oral dose (FACS)
Format: in vivo, human
Protocol: A single dose of compound 31, which is a synthetic glycolipid of the present invention, described in the first aspect, i.e., (2S,3S,4R)-1-O-(α-D-galactosyl)-2-(N-tetracosanoylamino)-1,3,4-nonanetriol represented by the following formula (III), was orally administered to each of subjects of 4 cohorts (A, B, C, and D cohorts) each consisting of 3 normal subjects shown in Table 1 above after obtainment of informed consent.
The dose was set to 0.3 mg per person for A cohort, 1 mg per person for B cohort, 3 mg per person for C cohort, and 10 mg per person for D cohort.
Subsequently, T-cell subfractions were prepared from the peripheral blood of each subject by using the density gradient centrifugation method. First, a total of 20 mL of blood was collected from the vein of each subject 24 hours (1st day), 48 hours (2nd day), 72 hours (3rd day), and 168 hours (7th day) after the administration of compound 31 by using two 10-mL heparin sodium-containing vacuum blood collection tubes. For a control, 20 mL of blood was similarly collected from the vein of each subject one day before the administration of compound 31.
Next, 4 mL of Ficoll-Paque Plus (GE Healthcare Biosciences Corp.) was placed in each of four 15-mL conical tubes, and 10 mL of blood diluted twice with phosphate buffered saline (PBS) was gently layered thereon. Then, density gradient centrifugation was performed by centrifugation at 1800 rpm at ordinary temperature for 30 minutes. After the centrifugation, a supernatant containing plasma and platelet was discarded, and lymphocytes present at the boundary layer between the supernatant layer and the Ficoll-Paque Plus layer were recovered into a fresh 50-mL conical tube. The 50-mL conical tube was filled by adding PBS thereto, followed by centrifugation at 1800 rpm at ordinary temperature for 5 minutes. […] After a supernatant was removed by suction again, a single cell suspension was prepared by adding 1 mL of AIM-V medium (Life Technologies Corp.), and then, the number of cells was measured with a counting chamber. […]

CCCCCCCCCCCCCCCCCCCCCCCC(=O)NC(COC1OC(CO)C(O)C(O)C1O)[C@H](O)C(O)CCCCC (stereo in doubt) [compound 31, (2S,3S,4R)-1-O-(α-D-galactosyl)-2-(N-tetracosanoylamino)-1,3,4-nonanetriol]
suppressive effects on CD8-positive T-cells (A cohort (0.3 mg), 7 days after administration): strengthened
growth of CD8-positive T-cells (C cohort (3 mg), 1 day after administration): transiently promoted
proportion of CD8-positive T-cells (GM-CSF-producing) in PBMCs (single oral dose, all cohorts, after administration vs day-1): decreased

Source: patent US12447167B2, “GM-CSF-producing t-cell control agent and Th1/Th2 immune balance regulator” (National Center of Neurology and Psychiatry, priority 2014, dated 2025)
